Laboratory results as given in patent US20250327028A1, “ENGINEERED PLATELETS AS TARGETED PROTEIN DEGRADERS” (Wisconsin Alumni Research Foundation, priority 2024, published 2025).

Legend:
WT MDA-MB-231 cells [1] = assay: In-gel fluorescence detection of NA-647 internalization in WT MDA-MB-231 cells; format: cell-based, human
Description: In-gel fluorescence detection: In-gel fluorescence was mainly used to investigate the internalization of NeutrAvidin™_647 in HAC-B-treated cancer cells.
Sample preparation: 4T1 or WT MDA-MB-231 cells were seeded in 6-well culture plates with a density of 5×10^4 cells in each well and cultured for 24 h. If HAI pretreatment was performed, the cells were incubated in the HAI-containing blank medium at different concentrations for 2 h and washed with PBS twice before the following treatments. Then, the cells were treated with free HAC-B or the combinations of various ligands at the indicated concentrations for the predetermined time points. Next, the drug-containing medium was removed, and PBS was used to wash the cells twice, followed by incubating the cells in the blank medium containing NeutrAvidin™ DyLight™ 650 (NA-647, Invitrogen/84607) at 0.5 μM for 1 h. Finally, the cells were washed with PBS and lysed on ice with the RIPA buffer containing PMSF (1 mM) and the phosphatase inhibitor cocktail for 30 min. A s for the 4T1 cells cotreated with NA-647 and HAC-B, the cells after 24-h incubation were treated with the blank medium containing NA-647 at 0.5 μM and HAC-B at various concentrations for 2 h before cell lysis.
In-gel fluorescence imaging: After 30-min lysis, the lysates were centrifuged at 10,000 g for 10 minutes at 4° C., and the corresponding supernatants were collected, followed by quantification of the total proteins in the supernatant through the BCA assay. Afterward, the proteins in the supernatant were mixed with ¼ volume of 5× sample buffer formulated by Tris-HCl (pH 6.8, 312.5 mM), sucrose (25%), SDS (10%), bromophenol blue (0.025%), and dithiothreitol (DTT, 250 mM). After incubation for 1 h at room temperature, equal amounts of proteins from different samples ([…] per lane) were loaded into the 12% Bis-Tris gel. After the proteins were separated, the gels were subjected to fluorescence imaging with the ChemiDoc™ MP imaging system (Bio-Rad).

WT MDA-MB-231 cells [2] = assay: Colocalization between internalized NeutrAvidin and lysosome marker LAMP1; format: cell-based, human; details: HAC-B 5 μM, NA-647 0.5 μM 1 h
Description: Colocalization between internalized NeutrAvidin™ and lysosome maker: 5×10^4 WT MDA-MB-231 cells were seeded in a confocal dish and cultured for 24 h at 37° C. Then, the cells were treated with free HAC-B at 5 μM for 2 h. Next, the drug-containing medium was removed, and PBS was used to wash the cells twice, followed by incubating the cells in the blank medium containing NA-647 at 0.5 μM for 1 h. Subsequently, the cells were washed with PBS twice and fixed with 4% PFA at room temperature for 20 min. Subsequently, the cell sample was treated with the permeabilization solution (0.5% Triton™ X-100 in PBS) at room temperature for another 20 min, followed by incubation with the blocking buffer (1% BSA in PBS) at room temperature for 1 h. The cell sample was incubated with the rabbit anti-LAMP1 antibody (Cell Signaling Technology/9091T) overnight at 4° C., followed by the incubation with the Alexa Fluor®488-conjugated anti-rabbit IgG H & L secondary antibodies at room temperature for 2 h. After staining with Hoechst 33342, the cells were subjected to Leica SP8 Confocal WLL STED microscopy for observation.

[3] = tested on: HSP90α (Hsp90aa1) and HSP90β (Hsp90ab1); assay: Streptavidin-mediated immunoprecipitation and mass spectrum analysis of biotin-labeled protein in 4T1 lysate; format: cell-based, murine; details: 4T1 cell lysate
Description: Streptavidin-mediated immunoprecipitation and mass spectrum analysis: 2×10^6 4T1 cells were seeded in T75 culture flasks and cultured for 24 h. Then, the medium in the corresponding flasks was replaced with 15 mL of blank medium with DMSO or HAC-B (10 μM). Following incubation for another 2 h, the cells were washed with cold PBS twice and digested with 2 mL trypsin. The cell pellets were collected through centrifugation at 1,200 rpm for 3 min and washed with cold PBS. The final pellets were directly lysed on ice with IP lysis buffer (50 mM Tris-HCl, pH 7.4; 150 mM NaCl; 2 mM EDTA; 1% NP-40) containing PMSF (1 mM) and the phosphatase inhibitor cocktail for 30 min. The lysates were collected and centrifuged at 10,000 g for 10 minutes at 4° C. The total proteins in the supernatants were quantified through the BCA assay, and 20 μL of lysate supernatants were saved as the input samples. To totally pull down the biotin-labeled contents, 150 μL of Pierce™ streptavidin magnetic beads was added to each supernatant, and the resulting mixtures were incubated at 4° C. with a gentle rotation overnight. Subsequently, the supernatant was discarded by placing the tubes on a magnetic rack, and the obtained magnetic beads were washed with IP lysis buffer three times. […] Finally, the bands were treated with ECL western blot substrate and detected by the iBright™ imaging system. […]

Structure (SMILES): N#CCN(C(=O)CCCC[C@@H]1SC[C@@H]2NC(=O)N[C@@H]21)S(=O)(=O)c1ccc(C(=O)NCCCn2c(Sc3cc4c(cc3I)OCO4)nc3c(N)ncnc32)cc1 [HAC-B, N-(3-(6-amino-8-((6-iodobenzo[d][1,3]dioxol-5-yl)thio)-9H-purin-9-yl)propyl)-4-(N-(cyanomethyl)-N-(5-((3aS,4S,6aR)-2-oxohexahydro-1H-thieno[3,4-d]imidazol-4-yl)pentanoyl)sulfamoyl)benzamide]
- internalization of NA-647 after optimized pretreatment (WT MDA-MB-231 cells [1]; HAC-B pretreatment 5 μM, 4 h): substantially internalize NA-647
- internalization of extracellular NA-647 (WT MDA-MB-231 cells [1]; WT MDA-MB-231 cells, HAC-B pretreatment, then NA-647 0.5 μM 1 h): enhance the internalization of extracellular NA-647 in a time and concentration-dependent manner
- distribution of internalized NA-647 relative to lysosome marker LAMP1 (WT MDA-MB-231 cells [2]): mainly overlapped with the lysosome maker, LAMP1
- biotin-labeled protein immunoprecipitated by streptavidin beads (gel, immunoblot) ([3]; 10 μM, 2 h, vs sample without treatment): an additional HSP90 band appeared in the gel
- protein identification on IP samples through mass spectrum ([3]; streptavidin IP): could bind to both isoforms of HSP90, HSP90α (Hsp90aa1) and HSP90β (Hsp90ab1), with a favorable selectivity
